Test results taken from article PMC10743929, “Amphiphilic Sialic Acid Derivatives as Potential Dual-Specific Inhibitors of Influenza Hemagglutinin and Neuraminidase” (International Journal of Molecular Sciences, 2023).
“Also recorded” adds a separate entry of the source. Where two headings read alike, the source gives them in different places. Marks after values point to notes of the source that are not given here.

What was measured:
[1] = test system: viral neuraminidase; details: cited from earlier work
[2] = test system: hemagglutinin; details: cited from earlier work
[3] = test system: IAV (A/H1N1); assay: CPE reduction assay, influenza A/H1N1 in MDCK cells; type: cell-based, influenza A virus A/H1N1 (A/Virginia/ATCC3/2009 or A/PR/8); details: Influenza A virus, H1N1, 72 h
Method: (§1) The process of CPE reduction assay for the influenza virus was described previously. The virus strains were A/Virginia/ATCC3/2009, A/PR/8 (A/H1N1), A/Victoria/361/11, A/HK/7/87 (A/H3N2), and B/Ned/537/05 (IBV). On day 0, Madin-Darby canine kidney (MDCK) cells in 96-well plates were infected with influenza virus at a multiplicity of infection (MOI) of 0.0004 plaque forming units (PFU) per cell, and that was incubated at 35 °C for 3 days. After the third day, virus-induced CPE and compound cytotoxicity were scored by microscopy, and the data were confirmed by formazan-based MTS cell viability assay (CellTiter 96® AQueous One Solution Cell Proliferation Assay from Promega, Madison, WI, USA). […] Compound cytotoxicity was expressed as the concentration of the compound causing minimal changes in cell morphology (MCC) and 50% cytotoxic concentration (CC50) based on the MTS assay.

[4] = test system: IBV; assay: CPE reduction assay, influenza B in MDCK cells; type: cell-based, influenza B virus (B/Ned/537/05); details: Influenza B virus, 72 h
Method: as §1

[5] = in vitro; details: dog
[6] = test system: IAV (A/H3N2); assay: CPE reduction assay, influenza A/H3N2 in MDCK cells; type: cell-based, influenza A virus A/H3N2 (A/Victoria/361/11 or A/HK/7/87); details: Influenza A virus, H3N2, 72 h
Method: as §1

[7] = Dynamic light scattering of aggregates; details: RSD of 3 measurements in brackets
[8] = test system: Madin-Darby canine kidney (MDCK) cells; details: dog, 3 days
[9] = test system: influenza A strains; assay: Anti-influenza activity against influenza A strains (H1N1 and H3N2) in MDCK cells; type: cell-based, influenza A virus (H1N1 and H3N2 types); details: for activity against influenza A strains (in words): MDCK cells, H1N1 and H3N2; for ratio of CC50 to EC50 (selectivity): both determined by MTS assay, at best
Method: as §1

[10] = molecular target: H3N2 Hemagglutinin (Influenza A virus, UniProt P03437); assay: SPR affinity toward immobilized H3N2 hemagglutinin; type: binding, influenza type H3N2 (A/Aichi/2/1968); details: for Kd: KD(app)
Method: (§2) SPR experiments were conducted using a BIAcore S200 instrument (Cytiva, Marlborough, MA, USA) employing a CM5 chip with a carboxymethyldextran surface (Cytiva, USA). Hemagglutinins (ThermoFisher Scientific, Invitrogen, Waltham, MA, USA) from influenza type H3N2 (A/Aichi/2/1968) and H1N1 (A/Puerto Rico/8/34), as well as neuraminidase (Invitrogen, USA) from H1N1 (A/California/04/2009), were immobilized on the chip surface following the standard amine coupling procedure outlined in the manufacturer’s instructions. This immobilization process was performed at a flow rate of 10 μL/min using PBST as the running buffer. The chip surface was initially activated using an N-ethyl-N-(3-dimethylaminopropyl)carbodiimide/N-hydroxysuccinimide solution. Subsequently, 50 μg/mL solutions of individual proteins in 10 mM sodium acetate, pH 5, were injected into channels 2, 3, and 4, respectively. To block any unreacted groups, all channels were treated with 1 M ethanolamine, resulting in a final response of 4500 RU for HAs and 2700 RU for neuraminidase. Channel 1 was activated and blocked in the same manner, without the injection of any protein, serving as a blank.
(§3) Tested compounds in a PBST working buffer (20 mM Na-phosphate, 150 mM NaCl, pH 7.4, 0.005% Tween 20, 5% DMSO) were injected into the chip at a flow rate of 30 μL/min at 25 °C. The injection duration was 3 min, followed by a 10 min buffer flow to facilitate spontaneous dissociation. Each compound was injected as a two-fold dilution series within a concentration range of 0.78–800 μM (2.44–2500 μM for sialic acid). After each compound concentration series, five buffer injections were performed to ensure complete dissociation. To determine the apparent KD toward the immobilized proteins, the steady-state responses of the blank-subtracted curves from each replicate were fitted using a single-site binding model.
(§4) In experiments conducted in a DMSO-free buffer (20 mM Na-phosphate, 150 mM NaCl, pH 7.4, 0.005% Tween 20), each replicate was followed by a two-fold dilution series of DMSO, matching the DMSO concentration in the compound solutions. In this case, the steady-state response of the blank-subtracted curve was corrected by the corresponding blank-subtracted DMSO steady-state response. The final values from each replicate were fitted using a single-site binding model using Origin 7 (OriginLab Corporation, Northampton, MA, USA).
(§5) For all experiments, the final KD(app) and Rmax values, along with their standard deviations, were obtained through statistical analysis based on three replicates.

[11] = molecular target: H1N1 Neuraminidase (Influenza A virus, UniProt C3W5S3); assay: SPR affinity toward immobilized H1N1 neuraminidase; type: binding, influenza H1N1 (A/California/04/2009); details: PBST with 5% DMSO, 25 °C
Method: as §2, §3, §5

[12] = molecular target: H1N1 Hemagglutinin (Influenza A virus, UniProt P03452); assay: SPR affinity toward immobilized H1N1 hemagglutinin; type: binding, influenza type H1N1 (A/Puerto Rico/8/34); details: for Kd: KD(app)
H1N1 Hemagglutinin, sequence (P03452 18-565): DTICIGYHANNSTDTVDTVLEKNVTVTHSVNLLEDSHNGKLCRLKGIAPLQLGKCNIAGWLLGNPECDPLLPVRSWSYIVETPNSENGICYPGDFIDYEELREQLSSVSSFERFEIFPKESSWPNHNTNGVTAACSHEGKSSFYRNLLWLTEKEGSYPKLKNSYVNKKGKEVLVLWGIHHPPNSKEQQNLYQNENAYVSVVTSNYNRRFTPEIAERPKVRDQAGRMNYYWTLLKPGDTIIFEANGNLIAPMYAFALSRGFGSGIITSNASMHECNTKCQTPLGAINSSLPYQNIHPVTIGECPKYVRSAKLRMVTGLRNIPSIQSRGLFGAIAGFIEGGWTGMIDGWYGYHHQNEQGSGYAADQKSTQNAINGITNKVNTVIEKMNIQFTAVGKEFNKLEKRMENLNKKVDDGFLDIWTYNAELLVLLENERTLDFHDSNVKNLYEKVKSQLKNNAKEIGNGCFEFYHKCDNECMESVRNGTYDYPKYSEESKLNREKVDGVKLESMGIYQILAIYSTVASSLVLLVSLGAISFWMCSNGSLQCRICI
Method: as §2, §3, §4, §5

[13] = MTS cell viability assay, day 3, read-out: Antiviral EC50, IAV (A/H1N1), MTS
[14] = microscopic scoring of cytopathic effect, day 3, read-out: Antiviral EC50, IAV (A/H1N1), CPE
[15] = MTS cell viability assay, day 3, read-out: Antiviral EC50, IBV, MTS
[16] = microscopic scoring of cytopathic effect, day 3, read-out: Antiviral EC50, IBV, CPE
[17] = MTS cell viability assay, day 3, read-out: Antiviral EC50, IAV (A/H3N2), MTS
[18] = microscopic scoring of cytopathic effect, day 3, read-out: Antiviral EC50, IAV (A/H3N2), CPE
[19] = 0.1 mg/mL (diluted with water), 25 °C
[20] = 1 mg/mL in water/DMSO 9:1, 25 °C
[21] = H3N2 hemagglutinin, absence of DMSO, DMSO-free running buffer
[22] = H1N1 hemagglutinin, absence of DMSO, DMSO-free running buffer

Row | SMILES | EC50 [3, 13] [µM] | EC50 [3, 14] [µM] | EC50 [4, 15] [µM] | EC50 [4, 16] [µM] | CC50 [5] [µM] | EC50 [6, 17] [µM] | EC50 [6, 18] [µM] | d (average diameter of particles, DLS) [7, 19] | d (average diameter of particles, DLS) [7, 20] | Cytotoxicity MCC (minimum cytotoxic concentration) [8] | activity against influenza A strains (in words) [9] | ratio of CC50 to EC50 (selectivity) [9] [factor] | Rmax, H3N2 hemagglutinin, absence of DMSO ([10]; DMSO-free running buffer) [RU] | Kd [10, 21] [µM] | Rmax, H1N1 Neuraminidase [11] [RU] | Rmax, H1N1 hemagglutinin, absence of DMSO ([12]; DMSO-free running buffer) [RU] | Kd [12, 22] [µM] | other results
1 | CC(=O)NC1C(OC(=O)CNS(=O)(=O)c2cccc3c(N(C)C)cccc23)CC(OCCCCCCC(=O)NCc2cccc3ccccc23)(C(=O)O)OC1C(O)C(O)CO (stereo not drawn) [Compound 2] |  |  |  |  |  |  |  |  |  |  |  |  |  |  |  |  |  | substrate for viral neuraminidase (in words) [1]: not a substrate; affinity for hemagglutinin (in words) [2]: high affinity
2 | CCCCCCCCCCOC1C(OC)OC(COCCOCCOCCOCCn2cc(CSC3(C(=O)O)CC(O)C(NC(C)=O)C(C(O)C(O)CO)O3)nn2)C(OCc2ccc(OC)cc2)C1OCCCCCCCCCC (stereo not drawn) [Compound 12a] | > 100 | > 100 | > 100 | > 100 | 64 | > 100 | > 100 | 170 (15.8%) ^a nm | 126 (2.00%) ^a nm | 20 ^d µM |  |  |  |  |  |  |  | 
3 | CCCCCCCCOC1C(OC)OC(COCCOCCOCCOCCn2cc(CSC3(C(=O)O)CC(O)C(NC(C)=O)C(C(O)C(O)CO)O3)nn2)C(OCc2ccc(OC)cc2)C1OCCCCCCCC (stereo not drawn) [Compound 12b] | 15 ± 5 | 8.9 | > 100 | > 100 | 34 ± 13 | 8.7 ± 3.6 | 8.9 | 108 (13.4%) ^a nm | 96 (1.19%) ^a nm | 39 ± 20 µM | effective; also recorded: moderate effect | ≤ 4 | 454 ± 39 | 279 ± 98 | 175 ± 23 | 305 ± 30 | 187 ± 41 | Kd ([10]; H3N2 Hemagglutinin, PBST with 5% DMSO, 25 °C, steady-state single-site fit): 124 ± 21 µM; Rmax, H3N2 Hemagglutinin ([10]; PBST with 5% DMSO, 25 °C): 135 ± 11 RU; Kd ([12]; H1N1 Hemagglutinin, PBST with 5% DMSO, 25 °C, steady-state single-site fit): 161 ± 20 µM; Rmax, H1N1 Hemagglutinin ([12]; PBST with 5% DMSO, 25 °C): 130 ± 12 RU
4 | CCCCOC1C(OC)OC(COCCOCCOCCOCCn2cc(CSC3(C(=O)O)CC(O)C(NC(C)=O)C(C(O)C(O)CO)O3)nn2)C(OCc2ccc(OC)cc2)C1OCCCC (stereo not drawn) [Compound 12c] | > 100 | > 100 | > 100 | > 100 | > 100 | > 100 | > 100 | 111 (14.2%) ^a nm | 103 (28.3%) ^a nm | 100 ± 0 µM |  |  |  |  |  |  |  | 
5 | CCCCCCCCCCOCC1OC(CCCSC2(C(=O)O)CC(O)C(NC(C)=O)C(C(O)C(O)CO)O2)C=CC1OCCCCCCCCCC (stereo not drawn) [Compound 18a] | > 100 | > 100 | > 100 | > 100 | 10 | > 100 | > 100 |  |  | 20 ^d µM |  |  |  |  |  |  |  | 
6 | CCCCCCCCOCC1OC(CCCSC2(C(=O)O)CC(O)C(NC(C)=O)C(C(O)C(O)CO)O2)C=CC1OCCCCCCCC (stereo not drawn) [Compound 18b] | 23 | 25 | > 100 | > 100 | 32 ± 8 | 6.2 ± 3 | 4.8 ± 1 |  |  | 63 ± 19 µM | effective; also recorded: moderate effect | ≤ 5 | 925 ± 23 | 357 ± 23 | 166 ± 53 | 783 ± 8 | 286 ± 19 | 
